Measurements published in US9896457B2, “Microbial product having antifungal activity” (OP BIO FACTORY CO., LTD., priority 2013, dated 2018).

Key:
Aspergillus spp. = test: Antifungal agent sensitivity test, MIC by trace liquid dilution method (yeast-like fungi FP 'Eiken'); assay type: cell-based; conditions: numeric MIC (μg/mL) only in FIG. 2
Protocol: (§1) Minimum inhibitory concentration (MIC) was measured by the trace liquid dilution method. The measurement was performed using yeast-like fungi FP ‘Eiken’ (Eiken Chemical Co., Ltd.) and according to the manual of the product.

Candida spp. = test: as above; assay type: cell-based; conditions: numeric MIC (μg/mL) only in FIG. 2
Protocol: as §1

CC=C(Cc1ccccc1)C12CC(O)CCN1O2 (centres unmarked)
antifungal activity (MIC), result in words (Aspergillus spp.): good activity
antifungal activity (MIC), result in words (Candida spp.): good activity
